Reference: ChEMBL document CHEMBL4699425, “Active learning effectively identifies a minimal set of maximally informative and asymptotically performant cytotoxic structure-activity patterns in NCI-60 cell lines” (2020)
Activity calls are given as the source filed them. The calls are words filed in the database; no cut-off is given here.

Tested on: SK-MEL-2
Test: Growth inhibition of human SK-MEL-2 cells
Type: functional

GI50 (read-out: GI50) [µM] | GI50 (read-out: pGI50 (converted)) [µM] | SMILES | growth inhibition (GI)
 |  | COc1cc(C2c3cc4c(cc3OC(N3CCCC3)C2C)OCO4)cc(OC)c1OC (stereo unspecified) | Active
 |  | CC1C(c2ccccc2O)c2cc3c(cc2OC1N1CCCC1)OCO3 (stereo unspecified) | inactive
15 | 15 | Cc1ccc(-c2cc3c4c(nc5ccccc53)C(=O)c3cccnc3-c4n2)cc1 | 
0.874 | 0.875 | O=C1c2cccnc2-c2nc(-c3ccccn3)cc3c2c1nc1ccccc13 | 
